Test results taken from ChEMBL document CHEMBL5352456, “Isocyanides in med chem: A scaffold hopping approach for the identification of novel 4-isocyanophenylamides as potent antibacterial agents against methicillin-resistant Staphylococcusaureus” (Eur J Med Chem, 2023).

Assays:
Type in all cases: functional
Conditions in all cases: time 16-20 hrs
[1] = system: Staphylococcus aureus; experiment: Antibacterial activity against Staphylococcus aureus ATCC 6538 assessed as reduction in microbial growth measured for 16 to 20 hrs by microdilution assay
[2] = system: Staphylococcus aureus; experiment: Antibacterial activity against Staphylococcus aureus ATCC 25923 assessed as reduction in microbial growth measured for 16 to 20 hrs by microdilution assay
[3] = system: Staphylococcus aureus; experiment: Antibacterial activity against Staphylococcus aureus ATCC 29213 assessed as reduction in microbial growth measured for 16 to 20 hrs by microdilution assay
[4] = system: Klebsiella pneumoniae; experiment: Antibacterial activity against Klebsiella pneumoniae ATCC 700603 assessed as inhibition of bacterial growth measured for 16 to 20 hrs by microdilution assay
[5] = system: Pseudomonas aeruginosa; experiment: Antibacterial activity against Pseudomonas aeruginosa ATCC 10145 assessed as inhibition of bacterial growth measured for 16 to 20 hrs by microdilution assay
[6] = system: Escherichia coli; experiment: Antibacterial activity against Escherichia coli ATCC 25922 assessed as inhibition of bacterial growth measured for 16 to 20 hrs by microdilution assay
[7] = system: Staphylococcus aureus; experiment: Antibacterial activity against methicillin-resistant Staphylococcus aureus ATCC 43300 assessed as reduction in microbial growth measured for 16 to 20 hrs by microdilution assay
[8] = system: Staphylococcus aureus; experiment: Antibacterial activity against methicillin-resistant Staphylococcus aureus ATCC 33592 assessed as reduction in microbial growth measured for 16 to 20 hrs by microdilution assay
[9] = system: Staphylococcus epidermidis; experiment: Antibacterial activity against Staphylococcus epidermidis ATCC 35984 assessed as reduction in microbial growth measured for 16 to 20 hrs by microdilution assay
[10] = system: Staphylococcus epidermidis; experiment: Antibacterial activity against Staphylococcus epidermidis ATCC 12228 assessed as reduction in microbial growth measured for 16 to 20 hrs by microdilution assay
[11] = system: Staphylococcus epidermidis; experiment: Antibacterial activity against Staphylococcus epidermidis ATCC 49134 assessed as reduction in microbial growth measured for 16 to 20 hrs by microdilution assay

Row | Compound | MIC [1] | MIC [2] | MIC [3] | MIC [4] | MIC [5] | MIC [6] | MIC [7] | MIC [8] | MIC [9] | MIC [10] | MIC [11]
1 | [C-]#[N+]c1ccc(NC(=O)c2ccc(C(=O)OC)cc2)cc1 | > 8 µM | > 8 µM | > 8 µM | ≥ 64 µM | ≥ 64 µM | ≥ 64 µM | – | – | – | – | –
2 | N#Cc1ccc(NC(=O)Cc2ccccc2)cc1 | > 8 µM | > 8 µM | > 8 µM | ≥ 64 µM | ≥ 64 µM | ≥ 64 µM | – | – | – | – | –
3 | [C-]#[N+]c1ccc(C(=O)Nc2ccccc2)cc1 | > 8 µM | > 8 µM | > 8 µM | ≥ 64 µM | ≥ 64 µM | ≥ 64 µM | – | – | – | – | –
4 | [C-]#[N+]c1ccc(NC(=O)CCCCCCCC)cc1 | 8 µM | 2 µM | 8 µM | ≥ 64 µM | ≥ 64 µM | ≥ 64 µM | 4 µM | 8 µM | 0.5 µM | 1 µM | 0.5 µM
5 | [C-]#[N+]c1ccc(NC(=O)Cc2cccc(OC)c2)cc1 | 8 µM | 4 µM | 8 µM | ≥ 64 µM | ≥ 64 µM | ≥ 64 µM | 8 µM | 8 µM | 2 µM | 2 µM | 2 µM
6 | [C-]#[N+]c1ccc(NC(=O)Cc2ccc3c(c2)OCO3)cc1 | 8 µM | 4 µM | 8 µM | ≥ 64 µM | ≥ 64 µM | ≥ 64 µM | 8 µM | 8 µM | 1 µM | 1 µM | 1 µM
7 | [C-]#[N+]c1ccc(NC(=O)CCc2ccc([N+](=O)[O-])cc2)cc1 | > 8 µM | 4 µM | > 8 µM | ≥ 64 µM | ≥ 64 µM | ≥ 64 µM | 8 µM | > 8 µM | 1 µM | 2 µM | 2 µM
8 | [C-]#[N+]c1ccc(NC(=O)CCc2ccc(Br)cc2)cc1 | 8 µM | 8 µM | 8 µM | ≥ 64 µM | ≥ 64 µM | ≥ 64 µM | 8 µM | 8 µM | 2 µM | 2 µM | 2 µM
9 | N#Cc1ccc(NC(=O)COc2ccccc2)cc1 | > 8 µM | > 8 µM | > 8 µM | ≥ 64 µM | ≥ 64 µM | ≥ 64 µM | – | – | – | – | –
10 | [C-]#[N+]c1ccc(NC(=O)CCc2cc(OC)c(OC)c(OC)c2)cc1 | > 8 µM | > 8 µM | > 8 µM | ≥ 64 µM | ≥ 64 µM | ≥ 64 µM | – | – | – | – | –
11 | [C-]#[N+]c1ccc(NC(=O)Cc2cc(OC)c(OC)c(OC)c2)cc1 | > 8 µM | > 8 µM | > 8 µM | ≥ 64 µM | ≥ 64 µM | ≥ 64 µM | – | – | – | – | –
12 | [C-]#[N+]c1ccc(NC(=O)Cc2ccc([N+](=O)[O-])cc2)cc1 | 8 µM | 2 µM | 8 µM | ≥ 64 µM | ≥ 64 µM | ≥ 64 µM | 4 µM | 8 µM | 0.5 µM | 1 µM | 0.5 µM
13 | [C-]#[N+]c1ccc(NC(=O)CCCCC)cc1 | > 8 µM | 8 µM | > 8 µM | ≥ 64 µM | ≥ 64 µM | ≥ 64 µM | > 8 µM | > 8 µM | 1 µM | 1 µM | 1 µM
14 | [C-]#[N+]c1ccc(NC(=O)CC2CCCCC2)cc1 | > 8 µM | > 8 µM | > 8 µM | ≥ 64 µM | ≥ 64 µM | ≥ 64 µM | – | – | – | – | –
15 | [C-]#[N+]c1ccc(NC(=O)c2ccccc2C(F)(F)F)cc1 | > 8 µM | > 8 µM | > 8 µM | ≥ 64 µM | ≥ 64 µM | ≥ 64 µM | – | – | – | – | –
16 | CN(C)[C@@H]1C(O)=C(C(N)=O)C(=O)[C@@]2(O)C(O)=C3C(=O)c4c(O)cccc4[C@@](C)(O)[C@H]3C[C@@H]12 [TETRACYCLINE] | 1.13 µM | 1.13 µM | 1.13 µM | – | – | – | 1.13 µM | > 4.52 µM | 4.52 µM | > 4.52 µM | 0.27 µM

Continued, in another order:

Row | MIC [1] | MIC [2] | MIC [3] | MIC [4] | MIC [5] | MIC [6] | Compound | MIC [7] | MIC [8] | MIC [9] | MIC [10] | MIC [11]
17 | > 8 µM | > 8 µM | > 8 µM | ≥ 64 µM | ≥ 64 µM | ≥ 64 µM | [C-]#[N+]c1ccc(NC(=O)Cc2ccncc2)cc1 | – | – | – | – | –
18 | > 8 µM | > 8 µM | > 8 µM | ≥ 64 µM | ≥ 64 µM | ≥ 64 µM | N#Cc1ccc(NC(=O)Cc2cccc(Cl)c2)cc1 | – | – | – | – | –
19 | > 8 µM | > 8 µM | > 8 µM | ≥ 64 µM | ≥ 64 µM | ≥ 64 µM | [C-]#[N+]c1ccc(NC(=O)C(=O)c2ccccc2)cc1 | – | – | – | – | –
20 | > 8 µM | > 8 µM | > 8 µM | ≥ 64 µM | ≥ 64 µM | ≥ 64 µM | [C-]#[N+]c1ccc(NC(=O)CCc2cccnc2)cc1 | – | – | – | – | –
21 | > 8 µM | > 8 µM | > 8 µM | ≥ 64 µM | ≥ 64 µM | ≥ 64 µM | [C-]#[N+]c1ccc(NC(=O)Cc2c(Cl)cccc2Cl)cc1 | – | – | – | – | –
22 | > 8 µM | > 8 µM | > 8 µM | ≥ 64 µM | ≥ 64 µM | ≥ 64 µM | [C-]#[N+]c1ccc(NC(=O)Cc2ccccc2[N+](=O)[O-])cc1 | – | – | – | – | –
23 | > 8 µM | > 8 µM | > 8 µM | ≥ 64 µM | ≥ 64 µM | ≥ 64 µM | [C-]#[N+]c1ccc(NC(=O)c2ccc(Br)cc2)cc1 | – | – | – | – | –
24 | > 8 µM | > 8 µM | > 8 µM | ≥ 64 µM | ≥ 64 µM | ≥ 64 µM | [C-]#[N+]c1ccc(NC(=O)c2ccc(OC)cc2)cc1 | – | – | – | – | –
25 | > 8 µM | > 8 µM | > 8 µM | ≥ 64 µM | ≥ 64 µM | ≥ 64 µM | [C-]#[N+]c1ccc(NC(=O)c2ccccc2)cc1 | – | – | – | – | –
26 | > 8 µM | > 8 µM | > 8 µM | ≥ 64 µM | ≥ 64 µM | ≥ 64 µM | [C-]#[N+]c1ccc(NC(=O)Cc2ccccc2Cl)cc1 | – | – | – | – | –
27 | > 8 µM | > 8 µM | > 8 µM | ≥ 64 µM | ≥ 64 µM | ≥ 64 µM | [C-]#[N+]c1ccc(NC(=O)Cc2c[nH]c3ccccc23)cc1 | – | – | – | – | –
28 | > 8 µM | > 8 µM | > 8 µM | ≥ 64 µM | ≥ 64 µM | ≥ 64 µM | [C-]#[N+]c1ccc(NC(=O)c2ccccc2[N+](=O)[O-])cc1 | – | – | – | – | –
29 | > 8 µM | > 8 µM | > 8 µM | ≥ 64 µM | ≥ 64 µM | ≥ 64 µM | [C-]#[N+]c1ccc(NC(=O)CC(C)C)cc1 | – | – | – | – | –
30 | > 8 µM | > 8 µM | > 8 µM | ≥ 64 µM | ≥ 64 µM | ≥ 64 µM | [C-]#[N+]c1ccc(NC(=O)c2cccnc2)cc1 | – | – | – | – | –
31 | > 8 µM | > 8 µM | > 8 µM | ≥ 64 µM | ≥ 64 µM | ≥ 64 µM | [C-]#[N+]c1ccc(NC(=O)Cc2ccccc2OC)cc1 | – | – | – | – | –
